Reference: patent publication US20110262368A1, “C21 THIOETHERS AS GLUCOCORTICOID RECEPTOR AGONISTS” (Schering Corporation, priority 2007, published 2011)
Where two headings read alike, the source gives them in different places.

Legend:
[1] = cited from earlier work
Male Brown Norway Rats = conditions: rat, in vivo, ip, 2 days
Experimental: Thymus weight reduction studies were performed in accordance to the NIH GUIDE TO THE CARE AND USE OF LABORATORY ANIMALS and the Animal Welfare Act in an AAALAC-accredited program. Male Brown Norway Rats (200-250 g, Charles River, Bloomington, Mass., USA) were used in these studies. The effect of test steroid compounds compared to a control group was studied on thymus involution. […] Rats were dosed i.p. with test compound QD for two days. Twenty four hours after the 2nd dose, animals were euthanized with pentobarbital (125 mg/kg, i.p.). The thymus were removed and weighed and the results expressed as a percentage thymus involution. Doses are expressed in mg/kg. “NS” means not statistically significant.

Oc1cccc(Nc2ncc(F)c(Nc3cccc(O)c3)n2)c1 [Example R112]
improvement from baseline measurements of symptoms associated with chronic nasal congestion ([1]; from baseline (prior to drug initiation)): up to 38% | absolute difference over placebo, symptoms associated with chronic nasal congestion ([1]; versus placebo, absolute): 9% | relative improvement over placebo, symptoms associated with chronic nasal congestion ([1]; versus placebo, relative): greater than 20%

CC12CCC(=O)C=C1CCC1C2[C@@H](O)CC2(C)C1CC[C@]2(O)C(=O)CSc1nc2ccccc2s1 (stereo partly drawn) [Inventive Compound A]
% Thymus Involution (Male Brown Norway Rats; 30 mg/kg): −4 ± 7%

CC12C[C@H](O)[C@@]3(F)C(CCC4=CC(=O)CCC43C)C1CC[C@]2(O)C(=O)CSc1nc2ccccc2s1 (stereo partly drawn) [Inventive Compound B]
% Thymus Involution (Male Brown Norway Rats; 30 mg/kg): 10 ± 4%

C[C@@H]1CC2C3CCC4=CC(=O)C=CC4(C)[C@@]3(F)[C@@H](O)CC2(C)[C@@]1(O)C(=O)CSc1nc2ccccc2s1 (stereo partly drawn) [US′120]
% Thymus Involution (Male Brown Norway Rats; 10 mg/kg): 62 ± 3%
